Laboratory results reported in ChEMBL document CHEMBL4342445, “Structurally Diverse Meroterpenoids from a Marine-Derived Aspergillus sp. Fungus” (J Nat Prod, 2020).
The source made the active and inactive calls. No cut-off for these calls is given here.

Target: Acetylcholinesterase (Homo sapiens) (UniProt P22303)
Experiment: Inhibition of human erythrocytes AChE at 50 uM using acetylthiocholine iodide as substrate preincubated for 20 mins followed by substrate addition and measured every 30 secs for 1 hr by spectrophotometry based Ellman's method

Chain of Acetylcholinesterase (Homo sapiens) (P22303 whole entry): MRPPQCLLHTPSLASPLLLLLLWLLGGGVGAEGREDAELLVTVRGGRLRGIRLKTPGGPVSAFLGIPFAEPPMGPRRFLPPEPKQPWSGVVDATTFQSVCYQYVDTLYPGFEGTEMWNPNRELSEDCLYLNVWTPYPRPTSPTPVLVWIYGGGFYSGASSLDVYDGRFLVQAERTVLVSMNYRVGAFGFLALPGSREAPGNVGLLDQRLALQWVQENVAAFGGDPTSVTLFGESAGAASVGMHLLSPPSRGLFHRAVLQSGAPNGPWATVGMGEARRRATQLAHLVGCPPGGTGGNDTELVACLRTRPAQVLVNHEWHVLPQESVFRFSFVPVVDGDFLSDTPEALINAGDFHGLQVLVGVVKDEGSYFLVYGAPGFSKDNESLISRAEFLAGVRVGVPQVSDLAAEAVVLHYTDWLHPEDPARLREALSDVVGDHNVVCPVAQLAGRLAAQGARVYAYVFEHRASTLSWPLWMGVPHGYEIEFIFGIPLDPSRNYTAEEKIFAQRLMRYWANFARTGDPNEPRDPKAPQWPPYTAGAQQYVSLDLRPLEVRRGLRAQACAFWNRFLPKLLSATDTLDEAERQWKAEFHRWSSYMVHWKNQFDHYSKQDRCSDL

## C=C1[C@@]2(C)C[C@H]3[C@]4(C)C=CC(=O)OC(C)(C)[C@H]4CC[C@]3(C)[C@]1(C(=O)OC)C(=O)[C@@](C)(O)C2=O
  inhibition: inactive

## C=C1[C@@]2(C)C[C@]3(C)[C@](C)(CC[C@@H]4C(C)(C)OC(=O)C=C[C@]43C)[C@@]13C(=O)O[C@H](C)[C@@]3(O)C2=O
  inhibition: inactive

## C=C1[C@@]23C(=O)O[C@H](C)[C@@]2(O)C(=O)O[C@]1(C)[C@@H](OC(C)=O)C1=C(C)[C@]2(C=CC(=O)OC2(C)C)CC[C@@]13C
  inhibition: inactive

## C=C1[C@@]23C(=O)O[C@H](C)[C@]24O[C@@]2(C(=C)[C@]5(CCC(=O)OC5(C)C)C[C@@H](OC(=O)/C(C)=C/C)[C@]32C)[C@H](OC(C)=O)[C@@]1(C)OC4=O
  inhibition: inactive

## C=C1[C@]2(C)C(=O)[C@]3(O)[C@H](C)OC(=O)[C@]13[C@@]1(C)CC[C@@]3(C=CC(=O)OC3(C)C)C(C)=C1[C@@H]2OC(C)=O
  inhibition: inactive

## C=C1[C@@]23C(=O)O[C@H](C)[C@]24O[C@@]2(C(=C)[C@]5(C=CC(=O)OC5(C)C)CC[C@]32C)[C@H](OC(C)=O)[C@@]1(C)OC4=O
  inhibition: inactive

## C=C1[C@@]2(C)CC3=C(C)[C@]4(C=CC(=O)OC4(C)C)CC[C@]3(C)[C@@]13C(=O)O[C@H](C)[C@@]3(O)C2=O
  inhibition: inactive

## C=C1[C@@]2(C(=O)OC)C(=O)[C@H](O)[C@]1(C)CC1=C(C)[C@]3(C=CC(=O)OC3(C)C)CC[C@@]12C
  inhibition: inactive

## C=C1[C@@]2(C)CC3=C(C)[C@]4(C=CC(=O)OC4(C)C)CC[C@]3(C)[C@@]13C(=O)O[C@@H](C)[C@@]3(O)C2=O
  inhibition: inactive
